Experimental data taken from patent US11292770B2, “Pyridazinone herbicides” (FMC Corporation, priority 2017, dated 2022).

Assays:
Type in all cases: in vivo
[1] = system: barnyardgrass (Echinochloa crus-galli); test: Test A preemergence, barnyardgrass; conditions: 0 to 100 scale
Source text: (§1) Seeds of plant species selected from barnyardgrass (Echinochloa crus-galli), kochia (Kochia scoparia), ragweed (common ragweed, Ambrosia elation), ryegrass, Italian (Italian ryegrass, Lolium multiflorum), foxtail, green (green foxtail, Setaria viridis), and pigweed (Amaranthus retroflexus) were planted into a blend of loam soil and sand and treated preemergence with a directed soil spray using test chemicals formulated in a non-phytotoxic solvent mixture which included a surfactant. At the same time, plants selected from these weed species and also wheat (Triticum aestivum), corn (Zea mays), blackgrass (Alopecurus myosuroides), and galium (catchweed bedstraw, Galium aparine) were planted in pots containing the same blend of loam soil and sand and treated with postemergence applications of test chemicals formulated in the same manner Plants ranged in height from 2 to 10 cm and were in the one- to two-leaf stage for the postemergence treatment. Treated plants and untreated controls were maintained in a greenhouse for approximately 10 d, after which time all treated plants were compared to untreated controls and visually evaluated for injury. Plant response ratings, summarized in Table A, are based on a 0 to 100 scale where 0 is no effect and 100 is complete control. A dash (—) response means no test result.

kochia (Kochia scoparia) [2] = test: Test A preemergence, kochia; conditions: 0 to 100 scale
Source text: as §1

[3] = system: ragweed (common ragweed, Ambrosia elation); test: Test A preemergence, ragweed; conditions: 0 to 100 scale
Source text: as §1

[4] = system: ryegrass, Italian (Italian ryegrass, Lolium multiflorum); test: Test A preemergence, ryegrass, Italian; conditions: 0 to 100 scale
Source text: as §1

[5] = system: pigweed (Amaranthus retroflexus); test: Test A preemergence, pigweed; conditions: 0 to 100 scale
Source text: as §1

[6] = system: barnyardgrass (Echinochloa crus-galli); test: Test A postemergence, barnyardgrass; conditions: 0 to 100 scale
Source text: as §1

kochia (Kochia scoparia) [7] = test: Test A postemergence, kochia; conditions: 0 to 100 scale
Source text: as §1

[8] = system: ragweed (common ragweed, Ambrosia elation); test: Test A postemergence, ragweed; conditions: 0 to 100 scale
Source text: as §1

[9] = system: ryegrass, Italian (Italian ryegrass, Lolium multiflorum); test: Test A postemergence, ryegrass, Italian; conditions: 0 to 100 scale
Source text: as §1

[10] = system: pigweed (Amaranthus retroflexus); test: Test A postemergence, pigweed; conditions: 0 to 100 scale
Source text: as §1

[11] = system: wheat (Triticum aestivum); test: Test A postemergence, wheat; conditions: 0 to 100 scale
Source text: as §1

corn (Zea mays) = test: Test A postemergence, corn; conditions: 0 to 100 scale
Source text: as §1

[12] = system: blackgrass (Alopecurus myosuroides); test: Test A postemergence, blackgrass; conditions: 0 to 100 scale
Source text: as §1

[13] = system: galium (catchweed bedstraw, Galium aparine); test: Test A postemergence, galium; conditions: 0 to 100 scale
Source text: as §1

rice (Oryza sativa) = test: Test B flooded paddy test, rice; conditions: Flood, 250 g ai/ha; scale of 0 to 100
Method: (§2) Plant species in the flooded paddy test selected from rice (Oryza sativa), sedge, umbrella (small-flower umbrella sedge, Cyperus difformis), ducksalad (Heteranthera limosa), and barnyardgrass (Echinochloa crus-galli) were grown to the 2-leaf stage for testing. At the time of treatment, test pots were flooded to 3 cm above the soil surface, treated by application of test compounds directly to the paddy water, and then maintained at that water depth for the duration of the test. Treated plants and controls were maintained in a greenhouse for 13 to 15 d, after which time all species were compared to controls and visually evaluated. Plant response ratings, summarized in Table B, are based on a scale of 0 to 100 where 0 is no effect and 100 is complete control. A dash (—) response means no test result.

[14] = system: sedge, umbrella (small-flower umbrella sedge, Cyperus difformis); test: Test B flooded paddy test, sedge, umbrella; conditions: Flood, 250 g ai/ha; scale of 0 to 100
Method: as §2

[15] = system: ducksalad (Heteranthera limosa); test: Test B flooded paddy test, ducksalad; conditions: Flood, 250 g ai/ha; scale of 0 to 100
Method: as §2

[16] = system: barnyardgrass (Echinochloa crus-galli); test: Test B flooded paddy test, barnyardgrass; conditions: Flood, 250 g ai/ha; scale of 0 to 100, 0 no effect, 100 complete control
Method: as §2

Foxtail, Giant [17] = test: Test A postemergence, foxtail, giant; conditions: 0 to 100 scale
Foxtail, Giant [18] = test: Test A preemergence, foxtail, giant; conditions: 0 to 100 scale
[19] = system: foxtail, green (green foxtail, Setaria viridis); test: Test A preemergence, foxtail, green; conditions: 0 to 100 scale
Source text: as §1

[20] = system: foxtail, green (green foxtail, Setaria viridis); test: Test A postemergence, foxtail, green; conditions: 0 to 100 scale
Source text: as §1

[21] = 125 g ai/ha, 0 no effect, 100 complete control

| SMILES | Plant response rating, Barnyardgrass ([1]; 31 g ai/ha) | Plant response rating, Barnyardgrass ([1]; 125 g ai/ha) | Plant response rating, Kochia (kochia (Kochia scoparia) [2]; 31 g ai/ha) | Plant response rating, Kochia (kochia (Kochia scoparia) [2]; 125 g ai/ha) | Plant response rating, Ragweed ([3]; 31 g ai/ha) | Plant response rating, Ragweed ([3]; 125 g ai/ha) | Plant response rating, Ryegrass, Italian ([4]; 31 g ai/ha) | Plant response rating, Ryegrass, Italian ([4]; 125 g ai/ha) | Plant response rating, Pigweed ([5]; 31 g ai/ha) | Plant response rating, Pigweed ([5]; 125 g ai/ha) | Plant response rating, Barnyardgrass ([6]; 31 g ai/ha) | Plant response rating, Barnyardgrass [6, 21] | Plant response rating, Kochia (kochia (Kochia scoparia) [7]; 31 g ai/ha) | Plant response rating, Kochia (kochia (Kochia scoparia) [7]; 125 g ai/ha) | Plant response rating, Ragweed ([8]; 31 g ai/ha) | Plant response rating, Ragweed ([8]; 125 g ai/ha) | Plant response rating, Ryegrass, Italian ([9]; 31 g ai/ha) | Plant response rating, Ryegrass, Italian ([9]; 125 g ai/ha) | Plant response rating, Pigweed ([10]; 31 g ai/ha) | Plant response rating, Pigweed ([10]; 125 g ai/ha) | further results |
| --- | --- | --- | --- | --- | --- | --- | --- | --- | --- | --- | --- | --- | --- | --- | --- | --- | --- | --- | --- | --- | --- |
| C1COCCN1.Cn1nc(Cl)c(O)c(-c2c3ccccc3cc3ccccc23)c1=O [Compound 7] | 0 | 0 | 0 | 0 | 0 | 40 | 0 | 0 | 60 | 100 | 0 | 0 | 0 | 10 | 90 | 100 | 10 | 60 | 100 | 100 | Plant response rating, Wheat ([11]; 31 g ai/ha): 0; Plant response rating, Wheat ([11]; 125 g ai/ha): 0; Plant response rating, Corn (corn (Zea mays); 31 g ai/ha): 10; Plant response rating, Corn (corn (Zea mays); 125 g ai/ha): 10; Plant response rating, Blackgrass ([12]; 31 g ai/ha): 0; Plant response rating, Blackgrass ([12]; 125 g ai/ha): 10; Plant response rating, Galium ([13]; 31 g ai/ha): 70; Plant response rating, Galium ([13]; 125 g ai/ha): 100; Plant response rating, Rice (rice (Oryza sativa)): 0; Plant response rating, Sedge, Umbrella [14]: 100; Plant response rating, Ducksalad [15]: 100; Plant response rating, Barnyardgrass [16]: 0; Plant response rating, Foxtail, Giant (Foxtail, Giant [17]; 31 g ai/ha): 0; Plant response rating, Foxtail, Giant (Foxtail, Giant [17]; 125 g ai/ha): 10; Plant response rating, Foxtail, Giant (Foxtail, Giant [18]; 31 g ai/ha): 0; Plant response rating, Foxtail, Giant (Foxtail, Giant [18]; 125 g ai/ha): 0 |
| Cn1nc(Cl)c(O)c(-c2c3ccccc3cc3ccccc23)c1=O [Compound 1, 4-(9-anthracenyl)-6-chloro-5-hydroxy-2-methyl-3(2H)-pyridazinone] | 0 | 0 | 0 | 20 | 70 | 100 | 20 | 30 | 100 | 100 | 0 | 20 | 10 | 20 | 80 | 90 | 20 | 40 | 90 | 100 | Plant response rating, Foxtail, Green ([19]; 31 g ai/ha): 0; Plant response rating, Foxtail, Green ([19]; 125 g ai/ha): 0; Plant response rating, Foxtail, Green ([20]; 31 g ai/ha): 10; Plant response rating, Foxtail, Green ([20]; 125 g ai/ha): 50; Plant response rating, Wheat ([11]; 31 g ai/ha): 0; Plant response rating, Wheat ([11]; 125 g ai/ha): 10; Plant response rating, Corn (corn (Zea mays); 31 g ai/ha): 0; Plant response rating, Corn (corn (Zea mays); 125 g ai/ha): 0; Plant response rating, Blackgrass ([12]; 31 g ai/ha): 0; Plant response rating, Blackgrass ([12]; 125 g ai/ha): 10; Plant response rating, Galium ([13]; 31 g ai/ha): 70; Plant response rating, Galium ([13]; 125 g ai/ha): 90; Plant response rating, Rice (rice (Oryza sativa)): 0; Plant response rating, Sedge, Umbrella [14]: 90; Plant response rating, Ducksalad [15]: 85; Plant response rating, Barnyardgrass [16]: 20 |
